From patent publication US8563503B2, “Antibiotic, its nucleotide sequence, methods of construction and uses thereof” (Protein Design Lab. Ltd., priority 2011, dated 2013)

Columns and labels:
Enterococcus = assay: MIC by Agar Doubling Dilution Method, clinical isolates; type: cell-based, Enterococcus faecalis; conditions: Enterococcus clinical strains
Method: (§1) (3) Culture Solution • MH Broth Culture Solution: 25 g was added into […] distilled water, heat to dissolve, subpackaged, autoclaved at 116° C. for 20 minutes, and MH Solid Culture Medium, 36 g was added into 1000 ml distilled water, autoclaved at 116° C. for 20 minutes, used for drug sensitive test of Gram-positive and negative aerobic bacteria. • Blood culture solution for Enterococcus faecalis, which was prepared by adding defibration rabbit blood into the MH culture solution by 5-10% and cultured at 37° C. in 5% CO2 for 24 hours. 2. Experimental Methods (1) The Measurement of Minimum Inhibitory Concentration (MIC) • The Minimum Inhibitory Concentration (MIC) of PMC-SA1 was measured by Agar Doubling Dilution Method. The bacterium was inoculated on the surface of agar plate containing different concentration of drugs by multipoint inoculate instrument (Deneley A400). The bacterial content per point was 10^5 CFU/ml. After incubated at 37° C. for 18-24 hours, the result can be observed. The least concentration of drugs in plate culture solution without bacterium growing was Minimum Inhibitory Concentration (MIC) of the drug to the said bacteria. 3. Results

Enterococcus ATCC 700802 [1] = assay: MIC against the infecting strain (Table 2); type: cell-based, Enterococcus faecalis; conditions: ATCC700802
Method: as §1

[2] = tested on: Staphylococcus aureus (MRSA); assay: MIC by Agar Doubling Dilution Method, clinical isolates; type: cell-based; conditions: MRSA clinical strains
Method: as §1

[3] = tested on: Staphylococcus epidermidis (MRSE); assay: as above; type: cell-based; conditions: MRSE clinical strains
Method: as §1

E. coli = assay: as above; type: cell-based; conditions: E. coli clinical strains
Method: as §1

Baumanii = assay: as above; type: cell-based; conditions: Baumanii clinical strains
Method: as §1

[4] = tested on: Staphylococcus epidermidis (MSSE strain); assay: as above; type: cell-based; conditions: MSSE clinical strains
Method: as §1

[5] = tested on: Staphylococcus aureus (MSSA); assay: as above; type: cell-based; conditions: MSSA clinical strains
Method: as §1

[6] = tested on: Staphylococcus aureus MRSA BAA-42; assay: MIC against the infecting strain (Table 2); type: cell-based; conditions: Staphylococcus aureus MRSA BAA-42
Method: as §1

[7] = tested on: Staphylococcus aureus ATCC 29213; assay: MIC against the infecting strain (Table 2); type: cell-based; conditions: ATCC29213
Method: as §1

E. coli 02-1-65 [8] = assay: MIC against the infecting strain (Table 2); type: cell-based; conditions: E. coli 02-1-65
Method: as §1

Enterococcus ATCC 700802 [9] = assay: Protection test in vivo (intravenous injection) of infected mice; parameters: species or system Kungming mice; conditions: mice, infected with 7.0 × 10^6 cfu/ml i.p., drug once intravenous
Method: (§2) The drugs used in this embodiment were same with that used in embodiment 4.
(§3) The above drugs were dissolved and diluted by sterilized water, and the injection concentrations of each drug were 10 mg/kg, 5 mg/kg and 2.5 mg/kg.
(§4) After given intraperitoneal injection of fatal dose of above-mentioned bacteria, the mice of each drug experimental group respectively were given once intravenous injection of the drug by 10 mg, 5 mg, 2.5 mg/kg. The results were observed per 24 hours for 7-14 days. The positive result is mice's death.

[10] = tested on: Staphylococcus aureus MRSA BAA-42; assay: as above; parameters: species or system Kungming mice; conditions: mice, infected with 6.5 × 10^5 cfu/ml i.p., drug once intravenous
Method: as §2, §3, §4

[11] = tested on: Staphylococcus aureus ATCC 29213; assay: as above; parameters: species or system Kungming mice; conditions: mice, infected with 4.6 × 10^5 cfu/ml i.p., drug once intravenous
Method: as §2, §3, §4

E. coli 02-1-65 [12] = assay: as above; parameters: species or system Kungming mice; conditions: mice, infected with 3.8 × 10^5 cfu/ml i.p., drug once intravenous
Method: as §2, §3, §4

[13] = tested on: methicillin-resistant Staphylococcus aureus ATCC BAA-42; assay: Bacteria growth curve (A595 nm), comparison of the novel antibiotics; type: cell-based; conditions: drug 5 μg/ml, 37° C., A595 nm per hour
Method: The following experiment was set for comparing bacteriostasis effects of 6 kinds of the novel antibiotics. The experimental bacteriaum was United States Standard Strain methicillin-resistant Staphylococcus aureus ATCC BAA-42. 5 microliter of bacteria solution (10^6 CFU/ml level bacterium amount) was added into 10 ml culture solution containing 1% peptone, 1% NaCl, 0.5% yeast extract, 0.5% glucose and 0.1% K2HPO4, total of 8 groups were prepared. The first group as control was added 0.3 M NaCl+50 mM boric acid buffer fluid by the same volume as that of antibiosis polypeptide liquid added in any experimental groups, the second group was added penicillin G sodium by 5 μg/ml, PMC-SA1, PMC-SA2, PMC-SA3, PMC-SA4, PMC-SE and PMC-PA were added in the other experimental groups with preservative fluid being 0.3 M NaCl+50 mM boric acid buffer fluid by 5 ug/ml.
(§5) The solution of above groups was put into 100 ml conical flask, 200 rpm, grew at 37° C. 100 μl was sampled per hour, and added onto 96-pore ELISA plate and measured bacteria grown cloudiness by spectrophotometer (A595 nm) color comparison. The bacteria growth curve was drawn up to compare the bacteriostasis efficacy of antibiosis polypeptide.

[14] = tested on: methicillin-resistant Staphylococcus aureus (ATCC BAA-42); assay: Transmission electron microscope observation of bactericidal effect; type: cell-based; conditions: oxacillin 500 μg/ml, […]
Method: Transmission Electron Microscope Observations of the Bactericidal Effect of the Novel Antibiotic PMC-SA1 on Methicillin-Resistant Staphylococcus aureus (ATCC BAA-42) (Dyed by 1% Phospho-Wolframic Acid, Magnified by 25,000 Fold)
Culture solution: 1% tryptone, 1% NaCl, 0.5% yeast extract, 0.5% glucose, 0.1% K2HPO4.
Con: control group, the bacterium was added to the above culture solution and proper amount of 0.3 M NaCl+50 mM boric acid buffer solution, 200 rpm, grew at 37° C. for 2 hours, and the bacterial appearance was still regular;
PMC: the bacterium was added to the above culture solution with 10 μg/ml PMC-SA1 for 0.5 hours.

[15] = tested on: Pseudomonas aeruginosa Standard Strain (ATCC 27853); assay: Bacteria growth curve (A595 nm cloudiness), Pseudomonas aeruginosa; type: cell-based; conditions: drug 5 μg/ml, 37° C., A595 nm per hour
Method: The experimental bacterium was Pseudomonas aeruginosa Standard Strain (ATCC 27853) purchased from the Center for General Microorganism of the Administration (CGMCC). 5 microliter bacteria solution (10^6 CFU/ml level bacterium amount) was added into 10 ml MH culture solution. Seven groups are prepared. 0.3 M NaCl+50 mM boric acid buffer fluid which amount was identical to amount of antibiosis polypeptide liquid in the experimental group was added as control in the first group, 5 μg/ml wild-type colicin Ia was added in the second group, 5 μg/ml PMC-SA1 was added in the third group, and 5 μg/ml PMC-PA was added in the fourth group.
as §5, with “Liquid in the” for “The solution of”, “96-hole Elisa Plate to measure” for “96-pore ELISA plate and measured”

[16] = tested on: Multiple-drug resistance Pseudomonas aeruginosa (clinical separated strain 13280); assay: In vivo protection of mice infected by multiple-drug resistance Pseudomonas aeruginosa; parameters: species or system Kungming mice; conditions: 5 mg/kg intravenous, fatal dose i.p.
From the text: (1) Drugs • PMC-PA, piperacillin, amikacin, ceftazidime, levofloxacin.
Multiple-drug resistance Pseudomonas aeruginosa (clinical separated strain 13280, isolated by laboratory bacteria room of West China Hospital)
Kungming mice (n=60), half male and half female, weighing 15-20 g were given intraperitoneal injection of multiple-drug resistance Pseudomonas aeruginosa, therein PMC-PA, piperacillin, amikacin, ceftazidime and levofloxacin experimental group were set respectively as 10 mice per group, while the control group was set as 10 mice per group. After given intraperitoneal injection of fatal dose of the bacterium, the mice in drug experimental groups respectively were given an intravenous injection of one kind of above drugs, the results were observed per 24 hours for continuous 10 days. The positive result was mouse's death.

Question: Which results are given for `CC1(C)S[C@@H]2[C@H](NC(=O)[C@H](N)c3ccccc3)C(=O)N2[C@H]1C(=O)[O-].[Na+]` [Ampicillin, Ampicillin Sodium]?
Answer: MIC50 (Enterococcus): 0.5 µg/mL; MIC90 (Enterococcus): 16 µg/mL; Scope of MIC (Enterococcus): 0.25 to 16 µg/mL; MIC (Enterococcus ATCC 700802 [1]): 2.5 µg/mL; MIC50 [2]: 16 µg/mL; MIC90 [2]: 32 µg/mL; Scope of MIC [2]: 0.06 to 64 µg/mL; MIC50 [3]: 16 µg/mL; MIC90 [3]: 64 µg/mL; Scope of MIC [3]: 0.06 to 64 µg/mL; MIC50 (E. coli): >128 µg/mL; MIC90 (E. coli): >128 µg/mL; MIC50 (Baumanii): >128 µg/mL; MIC90 (Baumanii): >128 µg/mL; MIC50 [4]: 0.03 µg/mL; MIC90 [4]: 0.25 µg/mL; MIC50 [5]: 0.25 µg/mL; MIC90 [5]: 1 µg/mL; Scope of MIC [5]: <0.015-0.025 ^ mg/L; MIC [6]: 16 µg/mL; MIC [7]: 1.5 µg/mL; MIC (E. coli 02-1-65 [8]): >128 µg/mL; ED50 (Enterococcus ATCC 700802 [9]): 3.00 mg/kg; ED50 [10]: 25.41 mg/kg; ED50 [11]: 14.05 mg/kg; ED50 (E. coli 02-1-65 [12]): >32 mg/kg

Question: With `Cc1onc(-c2ccccc2)c1C(=O)N[C@@H]1C(=O)N2[C@@H]1SC(C)(C)[C@@H]2C(=O)[O-].[Na+]` [Oxacillin, Oxacillin Sodium] as the molecule, how does the “bacteriostasis effect on growth of methicillin-resistant Staphylococcus aureus (bacteria growth curve)” value [13] read?
Answer: Its value is “can hardly be restrained”.

Question: And the MIC50 (Enterococcus)?
Answer: The MIC50 was 16 µg/mL.

Question: What about the “bactericidal effect, bacterial appearance under transmission electron microscope” value [14] of the same molecule?
Answer: Its value is “the colour as well as appearance of the bacterium had changed, but the thallus was still integrated”.

Question: What about the “bactericidal effect, bacterial appearance under transmission electron microscope” value ([14]; listed as oxacillin) of the same molecule?
Answer: The value was “the appearance of bacterium had changed, but thallus were still integrative”.

Question: What about the MIC50 [3] of the same molecule?
Answer: The MIC50 was 64 µg/mL.

Question: And the MIC50 [4]?
Answer: The MIC50 was 0.03 µg/mL.

Question: What about the MIC90 [4] of the same molecule?
Answer: The MIC90 was 0.125 µg/mL.

Question: And the “Scope of MIC” value [4]?
Answer: The value was <0.125-0.25 ^ mg/L.

Question: And the MIC50 [5]?
Answer: Its MIC50 is 0.125 µg/mL.

Question: What about the MIC90 [5] of the same molecule?
Answer: The MIC90 was 0.125 µg/mL.

Question: And the “Scope of MIC” value [5]?
Answer: Its value is <0.015-0.25 ^ mg/L.

B1: PMC-PA: Staphylococcus aureus pheromone AgrD I connected to N-terminus of allosteric colicin Ia′; SEQ ID NO. 23; plasmid pBHC-PA (protein)
chain: YSTCDFIMSDPVRITNPAAESLGYDSDGREIMGVDIYLNPPRVDVFKGTPPAWSSFGNKTIWGGNEWVDDSPTRSDIEKRDKEITAYKNTLSAQQKENENKRTEAGKRLSAAIAAREKDENTLKTLRAGNADAADITRQEFRLLQAELREYGFRTEIAGYDALRLHTESRMLFADADSLRISPREARSLIEQAEKRQKDAQNADKKAADMLAEYERRKGILDTRLSELEKNGGAALAVLDAQQARLLGQQTRNDRAISEARNKLSSVTESLNTARNALTRAEQQLTQQKNTPDGKTIVSPEKFPGRSSTNHSIVVSGDPRFAGTIKITTSAVIDNRANLNYLLSHSGLDYKRNILNDRNPVVTEDVEGDKKIYNAEVAEWDKLRQRLLDARNKITSAESAVNSARNNLSARTNEQKHANDALNALLKEKENIRNQLSGINQKIAEEKRKQDELKATKDAINFTTEFLKSVSEKYGAKAEQLAREMAGQAKGKKIRNVEEALKTYEKYRADINKKINAKDRAAIAAALESVKLSDISSNLNRFSRGLGYAGKFTSLADWITEFGKAVRTENWRPLFVKTETIIAGNAATALVALVFSILTGSALGIIGYGLLMAVTGALIDESLVEKANKFWGI
modifications: The peptide of PMC-SA
notes: Staphylococcus aureus pheromone AgrD I connected to N-terminus of allosteric colicin Ia′; 23; plasmid pBHC-PA
Question: B1 was tested. Which “bacteriostasis effect on growth of methicillin-resistant Staphylococcus aureus (bacteria growth curve)” value [13] did it give?
Answer: The value was “the worst”.

Question: What about the “growth of Pseudomonas aeruginosa (bacteria growth curve)” value (“growth of Pseudomonas aeruginosa” below) [15] of the same molecule?
Answer: The value was “completely restrained”.

Question: And the “growth of Pseudomonas aeruginosa” value ([15]; listed as SEQ ID NO. 23)?
Answer: The value was “has antibacterial effect on Pseudomonas aeruginosa”.

Question: And the “survival rate of mice in 10 days” value [16]?
Answer: The value was 100%.

B2: wild-type colicin Ia: wild-type bacterial toxin colicin Ia secreted by E. coli (protein, UniProt P06716 1-626, looked up)
Colicin-Ia: MSDPVRITNPGAESLGYDSDGHEIMAVDIYVNPPRVDVFHGTPPAWSSFGNKTIWGGNEWVDDSPTRSDIEKRDKEITAYKNTLSAQQKENENKRTEAGKRLSAAIAAREKDENTLKTLRAGNADAADITRQEFRLLQAELREYGFRTEIAGYDALRLHTESRMLFADADSLRISPREARSLIEQAEKRQKDAQNADKKAADMLAEYERRKGILDTRLSELEKNGGAALAVLDAQQARLLGQQTRNDRAISEARNKLSSVTESLNTARNALTRAEQQLTQQKNTPDGKTIVSPEKFPGRSSTNHSIVVSGDPRFAGTIKITTSAVIDNRANLNYLLSHSGLDYKRNILNDRNPVVTEDVEGDKKIYNAEVAEWDKLRQRLLDARNKITSAESAVNSARNNLSARTNEQKHANDALNALLKEKENIRNQLSGINQKIAEEKRKQDELKATKDAINFTTEFLKSVSEKYGAKAEQLAREMAGQAKGKKIRNVEEALKTYEKYRADINKKINAKDRAAIAAALESVKLSDISSNLNRFSRGLGYAGKFTSLADWITEFGKAVRTENWRPLFVKTETIIAGNAATALVALVFSILTGSALGIIGYGLLMAVTGALIDESLVEKANKFWGI
Question: For B2, which “growth of Pseudomonas aeruginosa” value [15] is on record?
Answer: The value was “can not be effectively restrained”.
